# Like-named read-outs stand apart in the source and are kept apart here.
# What was measured:
# Format in all cases: biochemical
# [1] = biological target: T1, PI3Kδ-L (full-length PI3Kδ) (Homo sapiens, UniProt O00329); experiment: cell-free PI3 kinase activity assay at […]; also ATP-competitive binding assay ([…] less ATP bound)
# T1 construct: gene PIK3CD; full-length PI3Kδ-L, V5-His tagged, Ni-NTA purified from transfected LNCaP and MDA PCa 2b cells
# T1 sequence (O00329 1-1044): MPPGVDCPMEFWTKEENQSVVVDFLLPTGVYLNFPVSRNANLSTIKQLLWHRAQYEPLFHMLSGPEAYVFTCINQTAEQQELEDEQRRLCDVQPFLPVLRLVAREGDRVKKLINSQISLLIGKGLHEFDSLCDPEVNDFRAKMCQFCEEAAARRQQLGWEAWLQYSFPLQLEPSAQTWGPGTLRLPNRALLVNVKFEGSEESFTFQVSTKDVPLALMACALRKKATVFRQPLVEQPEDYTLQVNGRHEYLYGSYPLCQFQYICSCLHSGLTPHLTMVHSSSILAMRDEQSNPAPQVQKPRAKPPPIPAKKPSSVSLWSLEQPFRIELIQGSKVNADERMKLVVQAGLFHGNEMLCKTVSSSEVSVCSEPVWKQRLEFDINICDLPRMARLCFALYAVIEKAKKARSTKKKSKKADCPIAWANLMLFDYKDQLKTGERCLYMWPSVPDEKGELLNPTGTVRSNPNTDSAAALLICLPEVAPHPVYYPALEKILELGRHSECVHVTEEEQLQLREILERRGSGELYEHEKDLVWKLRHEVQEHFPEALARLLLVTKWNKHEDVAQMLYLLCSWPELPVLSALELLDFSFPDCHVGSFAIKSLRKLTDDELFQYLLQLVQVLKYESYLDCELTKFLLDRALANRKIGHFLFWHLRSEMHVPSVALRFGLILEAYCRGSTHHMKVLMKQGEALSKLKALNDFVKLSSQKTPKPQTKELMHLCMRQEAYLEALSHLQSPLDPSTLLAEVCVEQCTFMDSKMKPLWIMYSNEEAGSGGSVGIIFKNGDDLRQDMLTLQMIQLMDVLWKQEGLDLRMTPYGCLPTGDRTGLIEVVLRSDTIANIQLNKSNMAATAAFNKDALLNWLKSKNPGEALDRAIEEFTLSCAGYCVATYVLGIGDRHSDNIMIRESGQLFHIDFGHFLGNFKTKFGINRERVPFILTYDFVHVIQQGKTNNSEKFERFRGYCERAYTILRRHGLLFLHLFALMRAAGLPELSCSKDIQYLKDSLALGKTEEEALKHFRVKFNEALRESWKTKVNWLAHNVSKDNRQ
# [2] = biological target: T1, PI3Kδ-L (full-length PI3Kδ); experiment: cell-free PI3 kinase activity assay at […] (no effect at […] on MDA PCa 2b-derived protein); also ATP-competitive binding assay ([…] less ATP bound)
# [3] = biological target: T1, PI3Kδ-L (full-length PI3Kδ); experiment: cell-free PI3 kinase activity assay at […]; also ATP-competitive binding assay ([…] less ATP bound); remark: listed apart in the source
smiles,measurement,setting,value
Cn1c(=O)n(-c2ccc(C(C)(C)C#N)cc2)c2c3cc(-c4cnc5ccccc5c4)ccc3ncc21 [Dactolisib],cell-free PI3 kinase activity assay at 1 and 10 μM; also ATP-competitive binding,[1],"Idelalisib, Seletalisib, Wortmannin, and Dactolisib effectively suppressed the PI3Kδ-L activities"
COC[C@H]1OC(=O)c2coc3c2[C@@]1(C)C1=C(C3=O)[C@@H]2CCC(=O)[C@@]2(C)C[C@H]1OC(C)=O [Wortmannin],cell-free PI3 kinase activity assay at 1 and 10 μM (no effect at 1 μM on MDA PCa),[2],"Idelalisib, Seletalisib, Wortmannin, and Dactolisib effectively suppressed the PI3Kδ-L activities"
[O-][n+]1cccc(-c2nc3c(Cl)cccc3cc2[C@@H](Nc2ncnc3cccnc23)C(F)(F)F)c1 [Seletalisib],cell-free PI3 kinase activity assay at 1 and 10 μM; also ATP-competitive binding,[3],"Idelalisib, Seletalisib, Wortmannin, and Dactolisib effectively suppressed the PI3Kδ-L activities"
